From patent publication US20050080096A1, “Condensed heterocyclic compounds” (priority 2002, published 2005)

Molecular target: recombinant human PARP (Homo sapiens, UniProt P09874)
Experiment: PARP Inhibitory Activity (In vitro assay)
Type: biochemical
Conditions: 32P-NAD, activated DNA, 15 minutes at room temperature, pH8.0
Protocol: The recombinant human PARP (5.3 mg protein/ml) were incubated with a test compound in a 100 μl reaction buffer containing the indicated concentration of 1 mCi/ml ^32P-NAD, 50 mM Tris-HCl, 25 mM MgCl2, 1 mM DTT (dithiothreitol), 0.05 mM NAD (nicotinamido adenine dinucleotide), lmg/mi activated DNA, pH8.0. Incubation was for 15 minutes at a room temperature and the reaction was stopped by the addition of 200 μl of ice-cold 20% trichloroacetic acid followed by rapid filtration through GF/B filters. The filters were treated with scintillation fluid and acid-insoluble counts were measured for quantification of unit activity.
PARP Inhibitory Activity (%)=
[1-(enzyme activity with test compound)/(enzyme activity with vehicle)]×100

Chain of recombinant human PARP (P09874 whole entry): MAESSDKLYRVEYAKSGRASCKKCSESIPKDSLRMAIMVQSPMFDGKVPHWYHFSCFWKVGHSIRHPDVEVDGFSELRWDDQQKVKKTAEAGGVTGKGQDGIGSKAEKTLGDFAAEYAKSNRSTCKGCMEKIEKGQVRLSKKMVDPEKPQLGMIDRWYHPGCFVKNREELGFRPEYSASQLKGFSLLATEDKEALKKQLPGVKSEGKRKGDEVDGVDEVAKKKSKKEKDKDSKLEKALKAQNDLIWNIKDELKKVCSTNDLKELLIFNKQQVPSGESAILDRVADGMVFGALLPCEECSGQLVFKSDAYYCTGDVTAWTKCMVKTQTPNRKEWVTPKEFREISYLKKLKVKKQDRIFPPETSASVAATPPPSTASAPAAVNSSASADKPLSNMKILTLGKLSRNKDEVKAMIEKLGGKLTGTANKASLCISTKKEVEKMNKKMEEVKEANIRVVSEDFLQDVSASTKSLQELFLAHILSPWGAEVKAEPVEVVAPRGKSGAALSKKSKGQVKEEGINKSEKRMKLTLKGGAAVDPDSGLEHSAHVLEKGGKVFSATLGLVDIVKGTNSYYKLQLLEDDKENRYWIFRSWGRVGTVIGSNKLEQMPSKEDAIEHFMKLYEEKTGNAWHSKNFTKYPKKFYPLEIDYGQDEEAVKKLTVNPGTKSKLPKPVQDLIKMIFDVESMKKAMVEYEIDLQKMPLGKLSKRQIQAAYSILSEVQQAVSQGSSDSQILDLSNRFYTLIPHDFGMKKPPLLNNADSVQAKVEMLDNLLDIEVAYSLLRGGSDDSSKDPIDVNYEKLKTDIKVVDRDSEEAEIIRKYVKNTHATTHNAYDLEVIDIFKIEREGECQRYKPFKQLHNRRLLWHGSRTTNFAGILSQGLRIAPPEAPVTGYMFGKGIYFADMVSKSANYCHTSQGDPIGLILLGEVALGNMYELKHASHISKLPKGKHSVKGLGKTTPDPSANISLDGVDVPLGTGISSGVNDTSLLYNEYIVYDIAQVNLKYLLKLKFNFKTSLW

SMILES | IC50
O=c1[nH]c(CCCN2CC=C(c3ccccc3)CC2)nc2c1CCCC2 [Compound A, 2-[3-(4-Phenyl-3,6-dihydro-1(2H)-pyridyl)propyl]-5,6,7,8-tetrahydro-4(3H)-quinazolinone] | < 0.5 µM
O=c1[nH]c(CCCN2CC=C(c3ccccc3)CC2)nc2c1CSCC2 [Compound B, 2-[3-(4-Phenyl-3,6-dihydro-1(2H)-pyridyl)propyl]-3,5,7,8-tetrahydro4H-thiopyrano[4,3-d]pyrimidin-4-one] | < 0.5 µM
O=c1[nH]nc(CCCCN2CC=C(c3ccccc3)CC2)c2ccccc12 [Compound C, 4-[4-(4-Phenyl-3,6dihydro-1(2H)-pyridyl)butyl]-1(2H)-phthalazinone] | < 0.5 µM
Cn1c2c(c3ccccc31)CCN(CCCCc1n[nH]c(=O)c3ccccc13)C2 [Compound D] | < 0.5 µM
